Here are results for three molecules from patent US11998014B1, “O-{1-[(3,5-dinitrobenzoyl)amino]propan-2-yl} (4-chlorophenyl)carbamothioate as an eco-friendly insecticidal agent against Spodoptera littoralis (boisd.)” (KING FAISAL UNIVERSITY, priority 2024, dated 2024).

Values after ≈ are worked out from the molar mass of the structure shown. Like-named read-outs stand apart in the source and are kept apart here.

The test system of one data set is Spodoptera littoralis. Description: Insecticidal leaf dip bioassay on S. littoralis larvae (castor bean leaf discs). Format: in vivo, Spodoptera littoralis (cotton leafworm, laboratory strain). The settings on record: for Toxicity index %: 72 hours, fenoxycarb's LC50 / compound's LC50 * 100; for LC50: Spodoptera littoralis, in Gossypium hirsutum, foliar, 72 h. On the procedure:
Five concentrations (200, 100, 50, 25, 12.5 ppm) were designed for this synthetic compound and the reference fenoxycarb's compound as the dynamic ingredients based on ppm via diluting the commercial formulation.
In this experiment, the synthetic compound was tested for its insecticidal bioactivity using the industry-standard leaf dip bioassay techniques. Preparation of the compound stocks to create […], 0.1 g of compounds 2 were dissolved in five mL of Dimethyl formamide & combined with 5 mL of distilled water. Until usage, the stocks were kept in a refrigerator. The target substance test results were noted & the concentrations needed to destroy 50% (LC50) of S. littoralis larvae were calculated. The target compound was employed in five different concentrations, and 0.1% Tween 80 was employed as a surfactant. Castor bean leaf discs (nine centimeters in diameter) were dipped in the concentration under test for ten seconds, then fed to 2th and 4th larvae, which were roughly the same size and housed in glass jars (five pound). Each action carried out 3 times with ten larvae each. The mortality equalized via Abbott's formula. Calculations of mortality setback line were measurably rummage via probity analysis. Harmfulness index was strongminded via sun equations. The mortality results of larval insect were estimated through employing probit analysis through a statistics (LDP-line) equation which estimate the LC50 values with 95% fiducially limits of lower, upper confidence limit and slope.

In the next data set the test system is aquatic insects. The note with it: cited from earlier work.

As for `CCOC(=O)NCCOc1ccc(Oc2ccccc2)cc1` [fenoxycarb], the Toxicity index % in the data set with Spodoptera littoralis (2nd instar larvae) and in the data set on Spodoptera littoralis (4th instar larvae) was 100% each time. Besides, the LC50 in the data set on Spodoptera littoralis (read-out: LC50 (mg/L) at 95%, 2nd instar larvae, after 72 hours of treatment, leaf dip) worked out at 5.94 mg/L (≈ 19.7 µM); with Spodoptera littoralis (read-out: LC50 (mg/L) at 95%, 4th instar larvae, after 72 hours of treatment, leaf dip), 59.9 mg/L (≈ 199 µM).

As to `CCc1ccc(C(=O)NN(C(=O)c2cc(C)cc(C)c2)C(C)(C)C)cc1` [tebufenozide], the LC50 in the data set on aquatic insects is 100 to 1000 mg/L.

In the case of `CC(CNC(=O)c1cc([N+](=O)[O-])cc([N+](=O)[O-])c1)OC(=S)Nc1ccc(Cl)cc1` (stereo not shown) [Compound 2, O-{1-[(3,5-dinitrobenzoyl)amino]propan-2-yl} (4-chlorophenyl)carbamothioate], the values for the Toxicity index % in the data set with Spodoptera littoralis (2nd instar larvae) and in the data set with Spodoptera littoralis (4th instar larvae) were 47.52% and 88.23%, respectively. Besides, the “LC50 (mg/L) at 95%” value with Spodoptera littoralis (2nd instar larvae, after 72 hours of treatment, leaf dip) is reported as “about 12.505 mg/L”. Further, the LC50 in the data set on Spodoptera littoralis (2nd instar larvae, after 72 hours of treatment, leaf dip, read-out: LC50 (mg/L) at 95%) is 12.5 mg/L (≈ 28.5 µM); in the data set with Spodoptera littoralis (4th instar larvae, after 72 hours of treatment, leaf dip, read-out: LC50 (mg/L) at 95%), about 67.9 mg/L (≈ 155 µM).
